We go through one compound from US20040097408A1, “Compounds regulating cell proliferation and differentiation” (priority 2001, published 2004).

One data set has as its system BT474. The data set is described as follows: cell count proliferation assay. The data set is classed as cell-based. Also noted: key: +: A positive scoring in these Tables represent cells in which a 2-5 and a 10-40 fold reduction in the total number of cells relative to the control untreated cells was observed after 3 and 7 days of culture with F16, respectively. To be noted: BT474, human breast; F16 3 μM, cells counted after 3 and 7 days.

For another data set, the system named is EpH-A6 cells. Description: tumor growth of EpH-A6 cells injected subcutaneously in nude mice. It is filed as in vivo, mouse. Also noted: Tumor weight, right flank / Tumor weight, left flank: unit not given here. To be noted: for Tumor weight, left flank / Tumor weight, right flank: individual nude mice, F16 20 mg/kg intraperitoneally twice a day, 20 mg/kg. On the procedure: Twenty nude mice of 8-10 weeks of age were injected subcutaneously with 10^6 EpH-A6 cells in the left and right flanks. Three days after the cell injection, a 20 mg/kg dose of F16 (40% DMSO/60% PBS) was injected intraperitoneally twice a day to a group of 10 mice, and an equivalent dose of vehicle to the remaining 10 mice (placebo mice). After 10 days of treatment, tumors were removed from all mice and weighted. Tumor tissue was used for FACS analysis, pathology, and some were stored at −70° C. until further processing.

Data set [1] can be described thus: FACS analysis of F16 in tumor cell populations. It is filed as in vivo, mouse. To be noted: tumors of F16-treated nude mice. On the procedure: Several tumor cell populations from F16 treated and untreated mice were analyzed by FACS, in order to determine the presence of F16 in the cells.
A general note: A flow cytometer gives signals particle by particle.

Data set [2] has as its system EpH4-EV and EpH4-A6 cells. The data set is described as follows: intracellular colocalization with Mitotracker Red / Lysotracker Red / Hoescht. It is filed as cell-based, mouse. To be noted: 3 μM F16, 2 hours. On the procedure:
2×10^4 EpH4-EV and EpH4-A6 cells were seeded in 6 well chamber slides. Next morning, cells were left untreated or treated with F16 at 3 μM for 2 hours. Cells were incubated with Hoescht stain for 30 minutes and then visualized under the microscope. Hoescht stain specifically stains the nuclei of cells. A mitochondrial specific stain, Mitotracker Red (Molecular Probes), was added to the medium to stain mitochondria, and Lysotracker Red to stain lysosomes and acidic compartments, according to manufacturer procedure. Hoescht stain was also included in the medium (together with the other stains). Cells were photographed under Axioskop (Zeiss) using a Spot Camera (Diagnostic Instruments).

Data set [3] relates to isolated mouse liver mitochondria. Description: mitochondrial oxygen consumption (Clarke-type oxygen electrode). It is filed as biochemical. Here is the method: Mitochondria were isolated from liver of Balb/c7 mice by standard differential centrifugation, and resuspended in isolation buffer (0.2 M sucrose, 10 mM Tris-MOPS pH 7.4, 0.1 mM EGTA-Tris, 0.1% delipidated BSA) (Costantini et al. (1995) Toxicology (99) 77-88). Protein concentration was determined by Bradford assay. For swelling determination, changes in side scatter at 545±2.5 nm of a 0.5 mg/ml suspension of mitochondria in experimental buffer (125 mM KCl, 10 mM Tris-MOPS pH 7.4, 1 mM Pi, 5 mM glutamate, 2.5 mM malate, 10 μM EGTA-Tris, pH 7.4) were monitored by using LS-50B spectrofluorimeter. To monitor changes in mitochondrial membrane potential, the intrinsic potentiometric properties of F16 were used. Mitochondria (0.5 mg/ml) were incubated in experimental buffer with the indicated concentrations of F16 and changes in F16 fluorescence intensity were measured, using a LS-50B spectrofluorimeter at 25° C., with excitation and emission wavelengths set at 415±2.5 nm and 520±5 nm, respectively. […]
The mechanism of PTP induction by F16 was further investigated as follows. […] First, the effects of F16 were measured on basal (state 4) and uncoupled mitochondrial respiration as follows. Oxygen consumption was determined using a Clarke-type oxygen electrode equipped with thermostatic control and magnetic stirring. […]

Values joined by “and” are separate entries in the source; they are usually repeats but may differ in a detail not shown here. Equal entries are not always repeated.

In the case of `C[n+]1ccc(/C=C/c2c[nH]c3ccccc23)cc1.[I-]` [F16], in the data set with BT474, the F16 response entry is “+”. For the same compound, in the data set with EpH-A6 cells (Experiment #1, 10 days), the “Tumor weight, left flank” value is 0.1131 and 0.0293 and 0.1365 and 0.021 and 0.1463 and 0.1127 and 0.1186 and 0.097 and 0.1163 and 0.1174; the “Tumor weight, right flank” value was 0.214 and 0.0666 and 0.1984 and 0.1597 and 0.1645 and 0.1127 and 0.2314 and 0.2412 and 0.2408 and 0.2174. In the data set with EpH-A6 cells (Experiment #2, 10 days), the “Tumor weight, left flank” value was 0.054 and 0.4294 and 0.3368 and 0.041 and 0.2375 and 0.2087 and 0.1809 and 0.0454 and 0.1417 and 0; the “Tumor weight, right flank” value is 0.022 and 0.632 and 0.2078 and 0.1798 and 0.1063 and 0.2621 and 0.1315 and 0.1971 and 0.3451 and 0. Moreover, in the data set with EpH-A6 cells (F16 20 mg/kg twice a day, 10 days), the “difference in tumor size relative to the control mice” value was 2-3 fold. Also, the “cells undergoing mitosis in tumors (pathology)” value with EpH-A6 cells (at least some F16 treated tumors compared to untreated tumors) is “decrease in number of cells undergoing mitosis”. Moreover, in data set [1], the “presence of F16 in tumor cells (fluorescent signal, FACS)” value was “delivered to the tumor cell mass”. For the same compound, the “intracellular localization of F16 staining” value in data set [2] is “overlapped with the mitochondrial staining, but not with the lysosomal staining”. The uncoupled mitochondrial respiration entry in data set [3] is “inhibits uncoupled respiration”. Besides, the “state 4 (basal) mitochondrial oxygen consumption” value in data set [3] (substrates for complexes I and II+III) was “increase in state 4 of mitochondrial oxygen consumption”.
